This note sets out measurements from patent US4226883A, “Carbamate derivatives and method for manufacture thereof” (priority 1974, dated 1980).

Values after ≈ are worked out from the molar mass of the structure shown. Read-outs that look alike come from different tables or passages of the source.

The subject of data set [1] is resistant green rice leafhoppers (R). The following applies: 1440 min. The gist of the method: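 Test compounds were diluted in acetone and applied topically to the thorax of female green rice leafhoppers at 0.2 μl per head. Insects were then held in cups with […] at 26±1 °C, and mortality was counted after 24 h. LD50 for mixtures is expressed as total dosage.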

A further data set in a line: in vivo. As to conditions: mouse, po.
The test system of data set [2] is Culex pipiens pallens immunized against organophosphoric preparations, last larval state. In words: Test Example 9 (W.H.O. method): mosquito larvae test. The class given is in vivo. The following applies: read-out: Effect of compound used singly, LD50 (Table 16). As to the method: (1) An ethyl alcohol solution of each test compound was diluted with water to varying concentrations in the range of from 0.01 to 1.0 ppm.
(2) A 200-ml portion of each solution of a different concentration was placed in a 300-ml beaker. Then 30 test insects were plunged into the solution and then removed.
(3) The insects removed from the solution were kept in a greenhouse at a constant temperature of 25±1° C. for 24 hours. At the end of 24 hours of standing, a count was taken of the number of insects that had died by that time.
The test described above was repeated twice or thrice.

Data set [3] deals with resistant green rice leafhoppers of RN-strain. As to conditions: green rice leafhopper, in vivo, topical or ocular.
Data set [4] deals with green rice leafhoppers of the strain RN. In words: Test Example 3: dust spray test (20 mesh metal gauze cylinder). In kind it is in vivo, Nephotettix cincticeps. As to conditions: for mortality at 250 mg/cylinder / mortality at 100 mg/cylinder: 24 hr; for Effect of individual compound (RN), death ratio (%) (Table 9): dust, compound alone, RN strain.
In data set [5] the test system is citrus red mites (Panonychus citri McGregor) immunized from Dimethoate. Briefly: whole plant or invertebrate. The following applies: foliar, 24 h, read-out: Mortality (%), Concentration 250 ppm.
In data set [6] the test system is green rice leafhoppers of the strain RN. In words: Test Example 4: dust test with 35 mesh metal gauze. The class given is in vivo, Nephotettix cincticeps. The following applies: Table 10, 35 mesh. As to the method:
The test for insecticidal activity was performed by the following procedure. […] The dust of a test compound (pulverized by means of a shaking pulverizer made by Taira Kosakusho, Ltd.) was applied onto the tube contents at a prescribed rate by spraying from outside the metal gauze by means of a bell-jar duster. The dust of the test compound was prepared uniformly mixing 2 parts of the dust of the individual compound or 1 part each of the dusts of the mixture components (total 2 parts) and 98 parts of a carrier obtained by mixing talc and clay in equal volumes.

Setting [7] is: ratio of the resistant strain to the susceptible strain (LD50).
The mark [8] stands for this setting: resistant Culex pipiens pallens larvae, compound alone, 24 hours.
Where [9] appears, read: 2% dust, 250 mg, read-out: Mortality (%) after 24 hr., 250 mg Spray (Table 7).
Setting [10] is: 2% dust, 100 mg, read-out: Mortality (%) after 24 hr., 100 mg Spray (Table 7).

Procedure for in vivo: Different amounts of the suspension were injected into the stomaches of test mice with a metal tube. For the test, male mice of the species ddY were used.

What is called LD50 is the dose at which mortality reaches 50%. High values mean a less toxic substance, low ones a more toxic substance. As for `CCCNC(=O)Oc1cccc(C(C)CC)c1` (stereo not drawn) [Compound 17, 3-sec-butylphenyl-N-n-propylcarbamate], the “Insecticidal Activity R/S (resistant ratio)” value in data set [1] (setting [7]) is reported as 1.2. In the data set “in vivo”, this compound displayed a median lethal dose (LD50) at 168 h of 30 to 300 mg/kg. Also, the values for the mortality in the data set “in vivo” (30 mg/kg) and in the data set “in vivo” (300 mg/kg) were 0% and 100%, respectively.
On to `COP(=S)(OC)Oc1ccc([N+](=O)[O-])c(C)c1` [MEP, dimethyl 4-nitro-m-tolyl phosphorothionate], for which the LC50 in data set [2] (setting [8]) worked out at 0.18 µg/mL (≈ 0.649 µM). The “LD50 (μg/g) (Table 13)” value in data set [3] is > 4,000 μg/g.
For `CCCNC(=O)Oc1cccc(C(C)CCC)c1` (stereo not drawn) [Compound 21, 3-sec-amylphenyl-N-n-propylcarbamate], the “Insecticidal Activity R/S (resistant ratio)” value in data set [1] (setting [7]) amounted to 2.9. The compound also returned an LD50 at 168 h in “in vivo” of 300 mg/kg.
In the case of `CCOC(=O)CC(SP(=S)(OC)OC)C(=O)OCC` (stereo not drawn) [Malathion, S-[1,2-bis(ethoxycarbonyl)ethyl]dimethyl phosphorothiolothionate, reference compound], the LC50 in data set [2] (Culex pipiens, 24 h) came to 0.31 µg/mL (≈ 0.938 µM).
With `CCCNC(=O)Oc1ccccc1C(C)CC` (stereo not drawn) [Compound 8, 2-sec-butylphenyl-N-n-propylcarbamate], the “Insecticidal Activity R/S (resistant ratio)” value in data set [1] (setting [7]) was found to be 1.2. Moreover, the mortality at 250 mg/cylinder in data set [4] (setting [9]) was found to be 80%. Besides, the LC50 in data set [2] (Culex pipiens, 24 h) was greater than 1 µg/mL.
In the case of `CCOC(=O)C(SP(=S)(OC)OC)c1ccccc1` (stereo not drawn) [PAP, S-[α-(ethoxycarbonyl)benzyl]dimethyl phosphorothiolothionate], the LC50 in data set [2] (setting [8]) was 0.16 µg/mL (≈ 0.499 µM). Further, in data set [3], the “LD50 (μg/g) (Table 13)” value was found to be 804.3 µg/g.
Turning to `CCC(C)c1cccc(OC(=O)NC)c1` (stereo not drawn) [Compound 15, 3-sec-butylphenyl-N-methylcarbamate, reference compound], the “Insecticidal Activity R/S (resistant ratio)” value in data set [1] (setting [7]) came out at 19.0. In “in vivo”, this compound registered an LD50 at 168 h of 87 mg/kg.
On to `CCCNC(=O)Oc1ccc(C)c(C)c1` [Compound 37, 3,4-dimethylphenyl-N-n-propylcarbamate], for which the “Insecticidal Activity R/S (resistant ratio)” value in data set [1] (setting [7]) came to 0.8. Further, the mortality at 100 mg/cylinder in data set [4] (setting [10]) was determined as 60%. In addition, the mortality at 250 mg/cylinder in data set [4] (setting [9]) came to 90%. The LC50 in data set [2] (Culex pipiens, 24 h) was greater than 1 µg/mL.
`CCCNC(=O)Oc1ccccc1C(C)C` [Compound 3, 2-isopropylphenyl-N-n-propylcarbamate]: the “Insecticidal Activity R/S (resistant ratio)” value in data set [1] (setting [7]) is listed as 1.3. For the same compound, in data set [2] (Culex pipiens, 24 h), the LC50 is greater than 1 µg/mL. Also, the LD50 at 168 h in the data set “in vivo” was 1130 mg/kg.
In the case of `CNC(=O)Oc1ccccc1C(C)C` [Compound 1, 2-isopropylphenyl-N-methylcarbamate, reference compound], in data set [1] (setting [7]), the “Insecticidal Activity R/S (resistant ratio)” value is 23.0. Further, in data set [1] (resistant strain (R), compound alone), the “LD50 (μg/g) (Table 6), single compound” value came to 82.2 µg/g. The “Effect of individual compound (RN), death ratio (%) (Table 9)” value (from here on “Effect … death ratio (%) (Table 9)”) in data set [4] came to 0%. In addition, in the data set “in vivo”, the LD50 at 168 h worked out at 210 mg/kg.
Take `CCCNC(=O)Oc1ccccc1OC(C)C` [Compound 83, 2-isopropoxyphenyl-N-n-propylcarbamate]: the “death ratio (%), mixture with Compound No. 1” value in data set [4] (Table 9, dust mixed with 1, RN) worked out at 80.0%. The “death ratio (%), mixture with Compound No. 6*” value in data set [4] (Table 9, dust mixed with 6*, RN) came out at 95.0%. For the same compound, in data set [4] (Table 9, dust mixed with 24*, RN), the “death ratio (%), mixture with Compound No. 24*” value was found to be 82.5%. In addition, in data set [4] (Table 9, dust mixed with 35*, RN), the “death ratio (%), mixture with Compound No. 35*” value stood at 100%. Besides, the “death ratio (%), mixture with Compound No. 40*” value in data set [4] (Table 9, dust mixed with 40*, RN) is 82.5%. Moreover, the “death ratio (%), mixture with Compound No. 49*” value in data set [4] (Table 9, dust mixed with 49*, RN) was found to be 50.0%. In data set [4] (Table 9, dust mixed with 81*, RN), the “death ratio (%), mixture with Compound No. 81*” value is listed as 100%. In addition, the “death ratio (%), mixture with Compound No. 118*” value in data set [4] (Table 9, dust mixed with 118*, RN) was found to be 95.0%. The “death ratio (%), mixture with Carbofuran” value in data set [4] (Table 9, dust mixed with Carbofuran, RN) was determined as 100%. Further, the “death ratio (%), mixture with Methomyl” value in data set [4] (Table 9, dust mixed with Methomyl, RN) was 100%. In addition, the “Effect … death ratio (%) (Table 9)” value in data set [4] came out at 20.0%. Further, the LC50 in data set [2] (Culex pipiens, 24 h) was greater than 1 µg/mL.
As for `CCOP(=S)(OCC)Oc1cc(C)nc(C(C)C)n1` [Diazinone, diethyl 2-isopropyl-6-methyl-4-pyrimidinyl phosphorothionate], the LC50 in data set [2] (Culex pipiens, 24 h) came out at 0.31 µg/mL (≈ 1.02 µM). In data set [3], the “LD50 (μg/g) (Table 13)” value is 62.3 µg/g and the “LD50 (μg/g) (Table 14)” value was 62.2 µg/g.
With `CCCNC(=O)Oc1ccc(CC)c(CC)c1` [Compound 51, 3,4-diethylphenyl-N-n-propylcarbamate], the mortality at 250 ppm in data set [5] is 80%.
`COP(=S)(OC)Oc1ccc(SC)c(C)c1` [MPP, dimethyl 4-methylthio-m-tolyl phosphorothionate]: the LC50 in data set [2] (setting [8]) was 0.1 µg/mL (≈ 0.359 µM). Further, the “LD50 (μg/g) (Table 13)” value in data set [3] was > 1,000 μg/g.
In the case of `CCCNC(=O)Oc1cc(C)cc(C)c1` [Compound 42, 3,5-dimethylphenyl-N-n-propylcarbamate], the “Insecticidal Activity R/S (resistant ratio)” value in data set [1] (setting [7]) stood at 0.7. Further, the mortality at 100 mg/cylinder in data set [4] (setting [10]) worked out at 70%; in data set [4] (Table 8, dust 100 mg, read-out: Mortality (%) after 24 hr., Spray Volume 100 mg), 70%. In addition, the mortality at 250 mg/cylinder in data set [4] (setting [9]) turned out to be 95%; in data set [4] (Table 8, dust 250 mg, read-out: Mortality (%) after 24 hr., Spray Volume 250 mg), 95%. Also, the LC50 in data set [2] (Culex pipiens, 24 h) was greater than 1 µg/mL.
For the compound `CC(C)OP(=O)(OC(C)C)SCc1ccccc1` [IBP, S-benzyl diisopropyl phosphorothiolate], the “LD50 (μg/g) (Table 14)” value in data set [3] is > 1,000 μg/g.
For `CCC(C)c1ccccc1OC(=O)NC` (stereo not drawn) [Compound 6, 2-sec-butylphenyl-N-methylcarbamate], in data set [1] (setting [7]), the “Insecticidal Activity R/S (resistant ratio)” value amounted to 28.4. Moreover, the mortality at 250 mg/cylinder in data set [4] (setting [9]) was determined as 10%. Further, in data set [4], the “Effect … death ratio (%) (Table 9)” value was 0%. Moreover, the mortality at 100 mg came out at 0% in data set [6] (1 hr, read-out: Death ratio (%) 1 hr., Dusting amount 100 mg); 0% in data set [6] (2 hrs, read-out: Death ratio (%) 2 hrs., Dusting amount 100 mg); 0% in data set [6] (4 hrs, read-out: Death ratio (%) 4 hrs., Dusting amount 100 mg); 0% in data set [6] (16 hrs, read-out: Death ratio (%) 16 hrs., Dusting amount 100 mg); 0% in data set [6] (24 hrs, read-out: Death ratio (%) 24 hrs., Dusting amount 100 mg). In addition, the mortality at 250 mg in data set [6] (1 hr, read-out: Death ratio (%) 1 hr., Dusting amount 250 mg) came out at 0%; in data set [6] (2 hrs, read-out: Death ratio (%) 2 hrs., Dusting amount 250 mg), 0%; in data set [6] (4 hrs, read-out: Death ratio (%) 4 hrs., Dusting amount 250 mg), 0%; in data set [6] (16 hrs, read-out: Death ratio (%) 16 hrs., Dusting amount 250 mg) it was 0%; in data set [6] (24 hrs, read-out: Death ratio (%) 24 hrs., Dusting amount 250 mg), 0%. For the same compound, the mortality at 500 mg in data set [6] (1 hr, read-out: Death ratio (%) 1 hr., Dusting amount 500 mg) was 0%; in data set [6] (2 hrs, read-out: Death ratio (%) 2 hrs., Dusting amount 500 mg) it was 0%; in data set [6] (4 hrs, read-out: Death ratio (%) 4 hrs., Dusting amount 500 mg), 0%; in data set [6] (16 hrs, read-out: Death ratio (%) 16 hrs., Dusting amount 500 mg), 0%; in data set [6] (24 hrs, read-out: Death ratio (%) 24 hrs., Dusting amount 500 mg), 0%.
For `CCCNC(=O)Oc1cc(C)c(N(C)C)c(C)c1` [Compound 120, 3,5-dimethyl-4-dimethylaminophenyl-N-n-propylcarbamate], the LD50 at 168 h in “in vivo” is 30 to 300 mg/kg. The mortality in the data set “in vivo” (30 mg/kg) was found to be 0%; in “in vivo” (300 mg/kg) it was 100%.
In the case of `CCCC(C)c1cccc(OC(=O)NC)c1` (stereo not drawn) [Compound 19, 3-sec-amylphenyl-N-methylcarbamate, reference compound], the “Insecticidal Activity R/S (resistant ratio)” value in data set [1] (green rice leafhopper, in vivo, topical_or_ocular) is on record as 9.3. For the same compound, the 50% lethal dose (LD50) at 168 h in “in vivo” was 54 mg/kg.
